# Experimental data: patent US12188095B2, “Methods and compositions for identifying and treating patients with small cell lung cancer” (UNIVERSITY OF UTAH RESEARCH FOUNDATION, priority 2016, dated 2025)
# Legend:
# human cell lines = assay: Human cell line viability with BCL2 inhibitors (CellTiter-Glo, GI50); format: cell-based; conditions: 96 h
# Experimental: Human cell lines were seeded in triplicate in white, flat-bottomed 96-well plates at 2000 cells/well. […] Drug was added again at 48 h to maintain the desired final concentration. After 96 h of treatment, cell viability was measured using Cell Titer Glo (CTG) assay (Promega, Madison, Wis., USA) and plates were read on a luminometer. Normalized, transformed dose response curves were generated and analyzed using GraphPad Prism (GraphPad, La Jolla, Calif., USA) to determine GI50 for each compound (see, FIG. 13). Error bars represent mean+/−SEM.
# human SCLC cell lines = assay: Drug screening of human SCLC cell lines (CellTiter-Glo viability, GI50); format: cell-based; conditions: 17 human SCLC cell lines, 72-96 hr; adjusted p: etoposide 0.038, alisertib 0.001, barasertib 0.022
# Experimental: Drug screening. Human SCLC cell lines were cultured in RPMI or HITES as described before (Sos et al., 2012). […] After 96 hr, cell viability was analyzed using CTG reagent. […] For PF-670462 (Apexbio), MS436 (MedChem Express), barasertib/1152-HQPA (Apexbio), alisertib/MLN8237 (Apexbio) and milciclib/PHA-848125 (MedChem Express), all dissolved in DMSO, indicated cell lines were screened using the same protocol in 384-well format with 500 (adherent) or 5000 (suspension) cells per well (25 ml) and treated using a robotic system (CyBio CyBi well vario). Upon treatment, cells were incubated for 72 hr prior to addition of CTG reagent. Each cell line and concentration was analyzed in quadruplicate per experiment with n=3 independent trials.
# [1] = system: RPM mouse SCLC cell lines; assay: Mouse cell viability and proliferation assays (CellTiter-Glo, GI50); format: cell-based; conditions: 96 hrs; for GI50: RPM cell lines (n=7)
# Experimental: Mouse cell viability and proliferation assays. Cells were seeded in triplicate (1500/well) in white, flat-bottom 96-well plates. […] After 96 hrs of treatment, cell viability was measured using Cell Titer Glo (CTG, Promega, Madison, Wis., USA) on a luminometer. Normalized, transformed dose response curves were generated and analyzed using GraphPad Prism (GraphPad, La Jolla, Calif., USA) to determine GI50 for each compound. […] Confluence percentage at each time point was calculated by the Essen IncuCyte software.
# RPM cells = assay: Cell cycle analysis (PI staining, flow cytometry); format: cell-based, mouse; conditions: 48 hr
# Experimental: Cell cycle analysis. Cells were treated with indicated concentrations of alisertib (MLN8237, Selleckchem, Houston, Tex.) in 6-well plates and harvested with trypsin, washed twice in PBS, and 1×10^6 cells were fixed in ice-cold 70% ethanol overnight. Cells were washed 2× in PBS/1% BSA, treated with 100 μg/mL RNase for 10 min at 37° C., then stained with 25 μg/mL propidium iodide (PI) overnight at 4 C. Cells were analyzed on a BD FACScan flow cytometer and cell cycle analysis excluding cell doublets was performed using FlowJo software.
# AURKB = molecular target: T1, AURKB (Homo sapiens, UniProt Q96GD4); assay: Immunoblot of Aurora kinase inhibition in treated cells; format: cell-based; conditions: concentrations in the range of the GI50-value, mouse and human cells
# T1 construct: Whole cell lysates analyzed by immunoblot for indicated antibodies; endogenous in cells; host or cells: GLC2 (human SCLC)
# T1 sequence (Q96GD4 whole entry): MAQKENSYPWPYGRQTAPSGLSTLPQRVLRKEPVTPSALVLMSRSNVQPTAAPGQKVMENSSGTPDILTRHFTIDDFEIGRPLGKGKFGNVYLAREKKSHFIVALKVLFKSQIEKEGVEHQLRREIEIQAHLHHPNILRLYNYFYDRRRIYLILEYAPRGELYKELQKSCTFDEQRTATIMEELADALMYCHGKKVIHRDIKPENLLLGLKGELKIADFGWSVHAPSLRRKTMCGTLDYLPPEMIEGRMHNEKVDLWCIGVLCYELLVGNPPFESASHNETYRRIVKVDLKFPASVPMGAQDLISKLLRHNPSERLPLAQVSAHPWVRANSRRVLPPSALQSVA
# Experimental: Immunoblot. For primary lung tumor lysates, mouse lung tumors were micro-dissected under sterile conditions, flash frozen and stored at −80° C. until use. Approximately 20-40 mg tumor pieces were disrupted and lysed to homogeneity with disposable pestles and cordless motor (VWR) in 200 μl RIPA buffer supplemented with protease inhibitors (Roche complete mini) and sodium orthovanadate (Sigma). Lysates are centrifuged at 13000 rpm for 15 minutes and supernatants are transferred to new tubes. For cell line lysates, total protein lysates are prepared as previously described, separated via SDS-PAGE and transferred to a PVDF membrane (Oliver et al., 2011). Membranes were blocked for 1 hr in 5% milk or 5% BSA, followed by overnight incubation with primary antibodies at 4° C. Membranes were washed for 6×5 min at room temperature in TBS-T. Mouse and rabbit HRP-conjugated secondary antibodies (Jackson ImmunoResearch, 1:10,000) were incubated for 1 hr at room temperature followed by washing 6×5 min at room temperature in TBS-T. For detection, membranes were exposed to WesternBright HRP Quantum substrate (Advansta) and detected on Hyblot CL film (Denville Scientific Inc). […]
# RPM tumors = assay: IHC and histology of tumors of treated RPM mice; format: in vivo, mouse
# Experimental: Sections were dewaxed, rehydrated and subjected to high temperature antigen retrieval, 20 min boiling in a pressure cooker in 0.01 M citrate buffer, pH 6.0. Slides were blocked in 3% H202 for 15 min, blocked in 5% goat serum in PBS/0.1% Tween-20 (PBS-T) for 1 hr, and stained overnight in blocking buffer with primary antibodies. A HRP conjugated secondary antibody (Vector Laboratories) was used at 1:200 dilution in PBS-T, incubated for 45 min at room temperature, followed by DAB staining (Vector Laboratories). All staining was performed with Sequenza coverplate technology. Mouse on Mouse (M.O.M.) Basic Kit (Vector Laboratories) was used for staining with BrdU and Ki67 mouse primary antibodies. Tris buffered saline with Tween-20 (TBS-T) was used instead of PBS-T for phospho-protein antibodies. […]
# For automated image analysis, IHC-stained slides were digitally scanned with the Aperio AT2 Scanscope and whole slides images were quantitatively analyzed with image analysis nuclear algorithm using Halo digital imaging analysis software (Indica Labs, NM, USA). […] Results are expressed as percent positive cells per tumor area.
# [2] = system: human SCLC cell lines infected with Bcl-2 vector; assay: Viability of human SCLC cell lines overexpressing BCL2; format: cell-based; conditions: human SCLC cell lines with pMSCV PIG Bcl-2 vs empty vector
# Experimental: HEK293T cells were transfected with pMSCV PIG (Addgene Plasmid #21654) empty vector, or pMSCV PIG with an insert that encodes the human Bcl-2 gene in addition to pCMV-VSVG and pCMV delta R8.2 plasmids using TransIT-LT1 (Minis). Virus was collected at 48 and 72 hr post-transfection. Human SCLC cell lines were infected with viral supernatant. Infected cells were selected with puromycin for several days until all uninfected cells were killed by puromycin. […] Cell viability assays were carried out as previously described, with the addition of Alisertib+/−0.5 uM ABT-199 (ApexBio) using the infected human cell lines described above. Cell viability assays were carried out as previously described, with the addition of Alisertib+/−0.5 uM ABT-199 (ApexBio) using the infected human cell lines described above.
# [3] = system: MYC-high vs. MYC-low human SCLC cell lines; conditions: 68 human SCLC cell lines binned by MYC expression, data of Polley et al., 2016; cited from earlier work
# MYC = MYC protein level and stability (immunoblot, cycloheximide); format: cell-based; conditions: mouse or human cells, also after cycloheximide block of protein synthesis
# Experimental: Alternatively, cell lysates were prepared using RIPA buffer supplemented with protease inhibitors (Roche complete mini) and benzonase (Millipore)), separated on 4-20% Tris-glycine SDS-PAGE gels (Invitrogen), and transferred to PVDF-FL membrane (Millipore). Membranes were blocked using Li-Cor blocking buffer (1:10 in TBS) and incubated with primary antibodies in blocking solution with 0.2% Tween 20 overnight at 4° C. Prior to detection with a near-IR imaging system (Li-Cor Odyssey), membranes were washed in TBS-T, incubated with secondary antibodies and washed in TBS-T. For total Aurora A in FIG. 6H, the chemiluminescent signal (ECL, GE Healthcare) was captured with a CCD-camera (BioRad Geldoc XR+). […]
# Protein stability cycloheximide (CHX) experiments. […] Protein lysates were prepared using RIPA buffer as described above, separated on 4-20% Tris-glycine gels (Invitrogen), and analyzed by immunoblot against Myc and Hsp90. Signals were quantified using Li-Cor Image Studio (Li-Cor Biosciences) and ratios of Myc/Hsp90 normalized to the 0 min time point. […]
# [4] = system: RPM mice with Myc-driven SCLC; assay: In vivo drug study in RPM mice (microCT tumor volume, survival); design: species or system mouse
# Experimental: Alisertib (MLN8237, ApexBio, dissolved in 10% 2-hydroxy-beta-cyclo-dextrin and 1% sodium bicarbonate) was given 20 mg/kg twice daily by oral gavage on a schedule of 5 days on, 2 days off. […] For survival studies, endpoints include but are not limited to: difficulty breathing, eating or moving, obvious signs of pain or weight loss greater than 20% of initial body weight.
# Mice were scanned for 34 sec under isoflurane anesthesia using a small animal Quantum FX microCT (PerkinElmer) at 45 μm resolution, 90 kV with 160 μA current. Images were acquired using PerkinElmer Quantum FX software and processed with Analyze 11.0 (AnalyzeDirect).
# Scans were calibrated for Hounsfield Units (HU) by determining the mean value of “Bed” and “Air” for representative scans through the region of interest (ROI) tool and matching those values to their known HU (40 HU and −1000 HU, respectively) using the “Image Algebra” tool. Every image was then applied a 3×3×3 Median Filter from the “Spatial Filters” window. Thresholds of “Air” vs. “Dense Tissue” were established using the ROI and histogram tools. Every image was processed and normalized using the “Image Algebra” tool, followed by a 3×3×3 Median Filter from the “Spatial Filters” window. For Total Tumor Burden Analyses, the object map was created using the previously established thresholds; adjustments were made manually using “Spline Edit”, “Draw” and “Nudge Edit” tools. The object map was then morphed using the “Morphology” tool. The object map was made binary by using the threshold morphing tool. Then, the map was dilated 3 times using 5×5×5 Jack-shaped structuring elements. The holes were then filled on every 2D-orientation. The map was finally brought back to its original size using the “Erode” tool 3 times using 5×5×5 Jack-shaped structuring elements. The volumetric analyses were then performed in the ROI window using the pre-established thresholds and non-airspace was calculated using the formula: Non-airspace=1−(VolAir/ROIVol). For individual tumors, the 3D segmentation was performed semiautomatically using Analyze 11.0 “object extract tool”. Adjustments were made manually using the “Spline Edit”, “Draw” and “Nudge Edit” tools. The tumor segmentation was then processed using the semi-automatic tools “fill holes” and the object was propagated and smoothed in the axial, transverse and coronal planes. Volume quantification was obtained using the ROI tool as for total tumor burden analyses.
# Total tumor volume was quantified relative to total air volume as a comprehensive measurement of treatment impact. […] The percent change in total tumor volume was analyzed at Day 19 (or at the time of death, if sooner) compared to Day 0 in each treatment group by waterfall plot.
# AURKA = assay: Immunoblot of Aurora kinase inhibition in treated cells; format: cell-based; conditions: concentrations in the range of the GI50-value, mouse and human cells
# relapsed SCLC = conditions: monotherapy, relapsed SCLC (Melichar et al., 2015); cited from earlier work
compound,measurement,setting,value
CC1(C)CCC(CN2CCN(c3ccc(C(=O)NS(=O)(=O)c4ccc(NCC5CCOCC5)c([N+](=O)[O-])c4)c(Oc4cnc5[nH]ccc5c4)c3)CC2)=C(c2ccc(Cl)cc2)C1 [ABT-199],sensitivity (GI50) to BCL2 inhibition relative to MYC expression,human cell lines,MYC expression anti-correlates with BCL2 expression and sensitivity to BCL2 inhibition
CN(C)CC[C@H](CSc1ccccc1)Nc1ccc(S(=O)(=O)NC(=O)c2ccc(N3CCN(Cc4ccccc4-c4ccc(Cl)cc4)CC3)cc2)cc1[N+](=O)[O-] [ABT-737],sensitivity (GI50) to BCL2 inhibition relative to MYC expression,human cell lines,MYC expression anti-correlates with BCL2 expression and sensitivity to BCL2 inhibition
COc1cc(Nc2ncc3c(n2)-c2ccc(Cl)cc2C(c2c(F)cccc2OC)=NC3)ccc1C(=O)O [alisertib],drug response (GI50) of MYC-driven SCLCs versus those driven by MYCL or MYCN,human SCLC cell lines,significantly more responsive
same,sensitivity of RPM cells compared to adenocarcinoma cell lines and non-MYC-driven cells (GI50),"[1]; RPM vs RPP, RP, KP cell lines",particularly sensitive
same,subG1 cells,"RPM cells; RPM cells compared to KP, RPP and RP cells",greater increase in subG1 cells
same,G2/M phase cells,RPM cells; RPM cells,dose-dependent increase in G2/M phase cells
same,inhibition of AURKB,AURKB,dose-dependent inhibition
same,cells with polyploidy and aberrant mitoses,RPM tumors; alisertib 20 mg/kg twice daily,dramatic enrichment
same,NEUROD1+ cells by IHC,RPM tumors; compared to other treatment groups,significantly enriched
same,Alisertib sensitivity on BCL2 overexpression,[2],BCL2 overexpression promotes Alisertib resistance
same,efficacy (IC50) in MYC-high versus MYC-low cell lines,[3],increased efficacy in MYC-high cell lines
same,MYC protein level,MYC,did not primarily lead to reduced MYC protein
same,increase of median survival compared to untreated animals,[4]; Day 0 = start of treatment,10 days
same,mice that survived 30 days,[4]; PBS 0%,8%
same,tumor growth (total tumor volume by microCT),"[4]; three cycles, alisertib 20 mg/kg twice daily 5 days on 2 off, cisplatin 5 mg/kg + etoposide 10 mg/kg once weekly",modest delay in tumor growth
same,overall response (percent change in total tumor volume Day 0-19) compared to untreated animals,[4]; waterfall plot,did not impact overall response
same,inhibition of AURKA,AURKA,dose-dependent inhibition
same,patients exhibiting partial responses,relapsed SCLC,~20%
N.N.[Cl][Pt][Cl] [cisplatin],GI50,[1],high micromolar
COc1cc([C@@H]2c3cc4c(cc3[C@@H](O[C@@H]3O[C@@H]5CO[C@@H](C)O[C@H]5[C@H](O)[C@H]3O)[C@H]3COC(=O)[C@H]23)OCO4)cc(OC)c1O [etoposide],GI50,[1],nanomolar
